Measured values from patent US20110144160A1, “Antagonists of Prostaglandin D2 Receptors” (Amira Pharmaceuticals, Inc., priority 2008, published 2011).
pIC50: −log10 of the molar value.

Target: T1, human DP2 receptor (Homo sapiens, UniProt Q9Y5Y4)
T1 construct: expressed in transfected cells
T1 sequence (Q9Y5Y4 1-395): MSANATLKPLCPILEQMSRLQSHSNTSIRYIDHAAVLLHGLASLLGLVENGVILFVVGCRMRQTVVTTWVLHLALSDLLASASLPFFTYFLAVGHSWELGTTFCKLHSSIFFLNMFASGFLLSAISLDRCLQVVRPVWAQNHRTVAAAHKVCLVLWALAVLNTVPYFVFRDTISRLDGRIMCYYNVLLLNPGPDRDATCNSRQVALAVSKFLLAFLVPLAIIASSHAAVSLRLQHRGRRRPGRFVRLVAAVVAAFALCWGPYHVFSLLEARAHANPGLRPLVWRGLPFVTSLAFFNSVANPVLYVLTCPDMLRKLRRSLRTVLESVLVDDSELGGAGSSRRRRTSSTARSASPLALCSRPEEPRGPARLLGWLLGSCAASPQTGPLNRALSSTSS
Test: DP2/CRTH2 binding assay ([3H]PGD2 radioligand)
Conditions: membranes of HEK293 cells expressing recombinant human DP2, 1 nM [3H]PGD2; read-out: hDP2
Procedure: The ability of a compound to bind to the human DP2 receptor is assessed via a radioligand binding assay using [^3H]PGD2. HEK293 cells stably expressing recombinant human DP2 are resuspended in 10 mM Hepes, 7.4 containing 1 mM DTT, lysed and centrifuged at 75,000×g to pellet the membranes. The membranes are resuspended in 10 mM Hepes, 7.4 containing 1 mM DTT and 10% glycerol to approximately 5 mg protein/ml. Membranes (2-10 μg protein/well) are incubated in 96-well plates with 1 nM [^3H]PGD2 and test compound in Assay Buffer (50 mM Hepes, 10 mM MnCl2, 1 mM EDTA, plus or minus 0.2% human serum albumin, pH 7.4) for 60 minutes at room temperature. The reactions are terminated by rapid filtration through Whatman GF/C glass fibre filter plates. The filter plates were pre-soaked in 0.33% polythylenimine for 30 minutes at room temperature then washed in Wash Buffer (50 mM Hepes, 0.5 M NaCl pH 7.4) prior to harvesting. After harvesting, the filter plates are washed 3 times with 1 ml cold Wash Buffer then dried. Scintillant is then added to the plates and the radioactivity retained on the filters is determined on a Packard TopCount (Perkin Elmer). Specific binding is determined as total radioactive binding minus non-specific binding in the presence of 10 μM PGD2. IC50s were determined using GraphPad prism analysis of drug titration curves.

pIC50, > 6.52:
COc1ccc(CC(=O)O)cc1Oc1ccc(NC(=O)NCc2ccccc2)cc1CSCC(F)(F)F [Compound 3, {3-[4-(3-benzyl-ureido)-2-(2,2,2-trifluoro-ethylsulfanylmethyl)-phenoxy]-4-methoxy-phenyl}-acetic acid]
COc1ccc(CC(=O)O)cc1Oc1ccc(NC(=O)c2ccc(Cl)cc2)cc1CSc1ccc(Cl)cc1 [Compound 4, {3-[4-(4-Chloro-benzoylamino)-2-(4-chloro-phenylsulfanylmethyl)-phenoxy]-4-methoxy-phenyl}-acetic acid]
COc1ccc(CC(=O)O)cc1Oc1ccc(NC(=O)C(C)(C)C)cc1CSc1ccc(Cl)cc1 [Compound 5, {3-[2-(4-chloro-phenylsulfanylmethyl)-4-(2,2-dimethyl-propionylamino)-phenoxy]-4-methoxy-phenyl}-acetic acid]
COc1ccc(CC(=O)O)cc1Oc1ccc(NC(=O)NCc2ccccc2)cc1CSc1ccc(Cl)cc1 [Compound 6, {3-[4-(3-benzyl-ureido)-2-(4-chloro-phenylsulfanylmethyl)-phenoxy]-4-methoxy-phenyl}-acetic acid]
COc1ccc(CC(=O)O)cc1Oc1ccc(NC(=O)c2ccc(Cl)cc2)cc1CSC(C)(C)C [Compound 8, {3-[2-tert-butylsulfanylmethyl-4-(4-chloro-benzoylamino)-phenoxy]-4-methoxy-phenyl}-acetic acid]
COc1ccc(CC(=O)O)cc1Oc1ccc(NC(=O)C(C)(C)C)cc1CSC(C)C [Compound 9, {3-[4-(2,2-Dimethyl-propionylamino)-2-isopropylsulfanylmethyl-phenoxy]-4-methoxy-phenyl}-acetic acid]
COc1ccc(CC(=O)O)cc1Oc1ccc(NC(=O)C(C)(C)C)cc1CS(=O)(=O)C(C)C [Compound 10, {3-[4-(2,2-Dimethyl-propionylamino)-2-(propane-2-sulfonylmethyl)-phenoxy]-4-methoxy-phenyl}-acetic acid]
COc1ccc(CC(=O)O)cc1Oc1ccc(NC(=O)C(C)(C)C)cc1C[S+]([O-])C(C)C (stereo not shown) [Compound 11, {3-[4-(2,2-Dimethyl-propionylamino)-2-(propane-2-sulfinylmethyl)-phenoxy]-4-methoxy-phenyl}-acetic acid]
COc1ccc(CC(=O)O)cc1Oc1ccc(NC(=O)C(C)(C)C)cc1CS(=O)(=O)CC(F)(F)F [Compound 12, {3-[4-(2,2-Dimethyl-propionylamino)-2-(trifluoro-ethanesulfonylmethyl)-phenoxy]-4-methoxy-phenyl}-acetic acid]
COc1ccc(CC(=O)O)cc1Oc1ccc(NC(=O)NCc2ccccc2)cc1CSC(C)(C)C [Compound 13, {3-[4-(3-benzyl-ureido)-2-tert-butylsulfanylmethyl-phenoxy]-4-methoxy-phenyl}-acetic acid]
COc1ccc(CC(=O)O)cc1Oc1ccc(NC(=O)C2CC2)cc1CSCC(F)(F)F [Compound 14, {3-[4-(Cyclopropanecarbonyl-amino)-2-(2,2,2-trifluoro-ethylsulfanylmethyl)-phenoxy]-4-methoxy-phenyl}-acetic acid]
COc1ccc(CC(=O)O)cc1Oc1ccc(NC(=O)C(C)C)cc1CSCC(F)(F)F [Compound 15, {3-[4-isobutyrylamino-2-(2,2,2-trifluoro-ethylsulfanylmethyl)-phenoxy]-4-methoxy-phenyl}-acetic acid]
COc1ccc(CC(=O)O)cc1Oc1ccc(NC(=O)CC(C)(C)C)cc1CSCC(F)(F)F [Compound 16, {3-[4-(3,3-Dimethyl-butyrylamino)-2-(2,2,2-trifluoro-ethylsulfanylmethyl)-phenoxy]-4-methoxy-phenyl}-acetic acid]
COc1ccc(CC(=O)O)cc1Oc1ccc(NC(=O)c2ccc(Cl)cc2)cc1CSC(C)C [Compound 20, {3-[4-(4-Chloro-benzoylamino)-2-isopropylsulfanylmethyl-phenoxy]-4-methoxy-phenyl}-acetic acid]
COc1ccc(CC(=O)O)cc1Oc1ccc(NC(=O)c2ccc(Cl)cc2)cc1C[S+]([O-])C(C)C (stereo not shown) [Compound 21, {3-[4-(4-Chloro-benzoylamino)-2-(propane-2-sulfinylmethyl)-phenoxy]-4-methoxy-phenyl}-acetic acid]
COc1ccc(CC(=O)O)cc1Oc1ccc(NC(=O)c2ccc(Cl)cc2)cc1CS(=O)(=O)C(C)C [Compound 22, {3-[4-(4-Chloro-benzoylamino)-2-(propane-2-sulfonylmethyl)-phenoxy]-4-methoxy-phenyl}-acetic acid]
COc1ccc(CC(=O)O)cc1Oc1ccc(NC(=O)c2ccc(Cl)cc2)cc1C[S+]([O-])c1ccccc1 (stereo not shown) [Compound 23, {3-[2-Benzenesulfinylmethyl-4-(4-chloro-benzoylamino)-phenoxy]-4-methoxy-phenyl}-acetic acid]
COc1ccc(CC(=O)O)cc1Oc1ccc(NC(=O)c2ccc(Cl)cc2)cc1CS(=O)(=O)c1ccccc1 [Compound 24, {3-[2-Benzenesulfonylmethyl-4-(4-chloro-benzoylamino)-phenoxy]-4-methoxy-phenyl}-acetic acid]
CCNC(=O)c1ccc(Oc2cc(CC(=O)O)ccc2OC)c(CSC(C)C)c1 [Compound 25, [3-(4-Ethylcarbamoyl-2-isopropylsulfanylmethyl-phenoxy)-4-methoxy-phenyl]-acetic acid]
COc1ccc(CC(=O)O)cc1Oc1ccc(C(=O)NCc2ccc(Cl)cc2)cc1CSC(C)C [Compound 26, {3-[4-(4-Chloro-benzylcarbamoyl)-2-isopropylsulfanylmethyl-phenoxy]-4-methoxy-phenyl}-acetic acid]
COc1ccc(CC(=O)O)cc1Oc1ccc(C(=O)NCCc2ccc(F)cc2)cc1CSC(C)C [Compound 27, (3-{4-[2-(4-Fluoro-phenyl)-ethylcarbamoyl]-2-isopropylsulfanylmethyl-phenoxy}-4-methoxy-phenyl)-acetic acid]
CC(C)(C)C(=O)Nc1ccc(Oc2cc(Cl)cc(CC(=O)O)c2)c(CSCC(F)(F)F)c1 [Compound 28, {3-Chloro-5-[4-(2,2-dimethyl-propionylamino)-2-(2,2,2-trifluoro-ethylsulfanylmethyl)-phenoxy]-phenyl}-acetic acid]
CC(C)(C)C(=O)Nc1ccc(Oc2cc(Cl)cc(CC(=O)O)c2)c(CS(=O)(=O)CC(F)(F)F)c1 [Compound 29, {3-Chloro-5-[4-(2,2-dimethyl-propionylamino)-2-(trifluoro-ethanesulfonylmethyl)-phenoxy]-phenyl}-acetic acid]
CC(C)S(=O)(=O)Cc1cc(NC(=O)C(C)(C)C)ccc1Oc1cc(Cl)cc(CC(=O)O)c1 [Compound 31, {3-Chloro-5-[4-(2,2-dimethyl-propionylamino)-2-(propane-2-sulfonylmethyl)-phenoxy]-phenyl}-acetic acid]
CC(C)(C)C(=O)Nc1ccc(Oc2cc(CC(=O)O)cc(C(F)(F)F)c2)c(CS(=O)(=O)CC(F)(F)F)c1 [Compound 33, {3-[4-(2,2-Dimethyl-propionylamino)-2-(trifluoro-ethanesulfonylmethyl)-phenoxy]-5-trifluoromethyl-phenyl}-acetic acid]
COc1ccc(CC(=O)O)cc1Oc1ccc(N(C)C(=O)C(C)(C)C)cc1CSCC(F)(F)F [Compound 34, {3-[4-[(2,2-Dimethyl-propionyl)-methyl-amino]-2-(2,2,2-trifluoro-ethylsulfanylmethyl)-phenoxy]-4-methoxy-phenyl}-acetic acid]
COc1ccc(CC(=O)O)cc1Oc1ccc(NC(=O)C2CC2)cc1CSC(C)(C)C [Compound 35, {3-[2-tert-butylsulfanylmethyl-4-(cyclopropanecarbonyl-amino)-phenoxy]-4-methoxy-phenyl}-acetic acid]
COc1ccc(CC(=O)O)cc1Oc1ccc(NC(=O)C(C)C)cc1CSC(C)(C)C [Compound 36, [3-(2-tert-Butylsulfanylmethyl-4-isobutyrylamino-phenoxy)-4-methoxy-phenyl]-acetic acid]
